Where a name gives a salt, the structure may show the parent alone.
tested on: peripheral blood mononuclear cells (PBMCs) from healthy donors; test: IFN production by R848-activated PBMCs, quantified with twINNE luciferase reporter cell line; format: cell-based, human; details: Homo sapiens, PBMC; read-out: IC50 of anti-inflammatory activity (IFN production by activated PBMCs)
Protocol: The blood from healthy donors was obtained from “Etablissement Français du Sang” (convention #19/EFS/029), Paris, France.
In vitro experiments were performed using human peripheral blood mononuclear cells (PBMCs) isolated by density centrifugation from peripheral blood leukocyte separation medium, lymphoprep (Stemcell Technologies).
PBMCs were cultured in RPMI 1640 (Sigma-Aldrich, MO, USA) containing 10% heat-inactivated fetal bovine serum (Sigma-Aldrich, MO, USA) at 37° C./5% CO2.
The PBMCs used herein were prepared as described in part A “immune cells preparation”, above. PBMCs were seeded at 4.10^6/mL. Cells were pre-treated with different concentration of examples according to the invention. Cells were then stimulated with the TLR7/8 agonist resiquimod—R848 (Sigma-Aldrich, MO, USA) at 5 μg/mL.
To quantify the secretion of functional IFN, a biological assay based on a stable cell line where luciferase reporter gene is controlled by five Interferon-Stimulated Response Elements (twINNE cell line) was used. First, supernatants of R848-stimulated PBMCs (see part B above) were harvested after 24 h of stimulation and frozen at −20° C. for storage. Then, supernatants were dispensed in culture wells of a 96-well plate containing 35.103 twINNE cells per well in Dulbecco's Modified Eagle's Medium supplemented with 10% Foetal Bovine Serum, 100 U/mL Penicillin and 100 μg/mL Streptomycin (1% Pen-Strep) and 1 mM glutamine (Sigma-Aldrich, MO, USA) at 37° C./5% CO2. After 24 h of culture, luciferase activity was determined by adding 60 μL of Bright-Glo reagents (Promega, Wisconsin, USA) to culture wells and measuring bioluminescence with EnSpire Multimode Plate Reader (PerkinElmer, Massachusetts, USA). When stated, for IC50 calculation, dose-response curves fitted using the nonlin fit (variable slope) analysis in GraphPad Prism software (GraphPad Software, Califronia, USA).
IFN production was quantified (as specified in Materials and Methods, part C “quantification of interferon secretion”) using twINNE reporter cell line.

**Q.** With `Brc1cccc2c1N=C1SC=C(CSC3=NCc4ccccc4N3)N1C2` [Example 85, 9-bromo-3-(((1,4-dihydroquinazolin-2-yl)thio)methyl)-5H-thiazolo[2,3-b]quinazoline dihydrochloride] as the compound, how does the IC50 read?
**A.** ≤ 10 µM

**Q.** Which IC50 does the source give for `c1ccc2c(c1)CN=C(SCCN1CCC3(CCCC3)C1)N2` [Example 142, 2-((2-(2-azaspiro[4.4]nonan-2-yl)ethyl)thio)-1,4-dihydroquinazoline dihydrochloride] here?
**A.** ≤ 10 µM

**Q.** With `Brc1ccc2c(c1)CN1C(CSC3=NCc4ccccc4N3)=CSC1=N2` [Example 69, 7-bromo-3-(((1,4-dihydroquinazolin-2-yl)thio)methyl)-5H-thiazolo[2,3-b]quinazoline dihydrochloride] as the compound, how does the IC50 read?
**A.** ≤ 10 µM

**Q.** For `Clc1ccc2c(c1)CN1C(CSC3=NCc4cccc(Br)c4N3)=CSC1=N2` [Example 92, 3-(((8-bromo-1,4-dihydroquinazolin-2-yl)thio)methyl)-7-chloro-5H-thiazolo[2,3-b]quinazoline dihydrochloride], which IC50 is on record?
**A.** ≤ 10 µM

**Q.** With `C1=C(CSC2=NCc3ccccc3N2)N2Cc3cccnc3N=C2S1` [Example 28, 3-(((3,4-dihydroquinazolin-2-yl)thio)methyl)-5H-pyrido[2,3-d]thiazolo[3,2-a]pyrimidine trihydrochloride] as the compound, how does the IC50 read?
**A.** ≤ 10 µM

**Q.** How did the IC50 turn out when `CN1CCC(SC2=NCCc3ccccc3N2)C1` (centres unmarked) [Example 105, 2-((1-methylpyrrolidin-3-yl)thio)-4,5-dihydro-1H-benzo[d][1,3]diazepine dihydrochloride] was run?
**A.** 10 to 32 µM

**Q.** Which IC50 does the source give for `C1CCNC(SCCCCN2CCCC2)=NC1` [Example 178, 2-((4-(pyrrolidin-1-yl)butyl)thio)-4,5,6,7-tetrahydro-1H-1,3-diazepine dihydrochloride] here?
**A.** > 32 µM

**Q.** For `CC1(C)CN=C(SCC2=CSC3=Nc4cc(Cl)ccc4CN23)N1` [Example 9, 8-chloro-3-(((5,5-dimethyl-4,5-dihydro-1H-imidazol-2-yl)thio)methyl)-5H-thiazolo[2,3-b]quinazoline dihydrochloride], which IC50 is on record?
**A.** 10 to 32 µM

**Q.** `Clc1ccc2c(ccn2CCSC2=NCc3ccccc3N2)c1` [Example 74, 2-((2-(5-chloro-1H-indol-1-yl)ethyl)thio)-3,4-dihydroquinazoline hydrochloride] was tested. Which IC50 did it give?
**A.** > 32 µM

**Q.** With `CC1(C)CN2C(CSC3=NCc4ccccc4N3)=CSC2=N1` [Example 3, 3-(((3,4-dihydroquinazolin-2-yl)thio)methyl)-6,6-dimethyl-5,6-dihydroimidazo[2,1-b]thiazole dihydrochloride] as the compound, how does the IC50 read?
**A.** ≤ 10 µM

**Q.** Which IC50 does the source give for `C1CN=C(SCCCCN2CCCC2)NC1` [Example 173, 2-((4-(pyrrolidin-1-yl)butyl)thio)-1,4,5,6-tetrahydropyrimidine dihydrochloride] here?
**A.** > 32 µM

**Q.** Which IC50 does the source give for `c1ccc2c(c1)CN=C(SCCN1CCOCC1)N2` [Example 155, 4-(2-((1,4-dihydroquinazolin-2-yl)thio)ethyl)morpholine dihydrochloride] here?
**A.** > 32 µM

**Q.** How did the IC50 turn out when `CC1(c2ccccc2)CN=C(SCCCCN2CCCC2)N1` (centres unmarked) [Example 170, 5-methyl-5-phenyl-2-((4-(pyrrolidin-1-yl)butyl)thio)-4,5-dihydro-1H-imidazole dihydrochloride] was run?
**A.** > 32 µM

**Q.** How did the IC50 turn out when `CCCCN1Cc2ccccc2N=C1SCC1=CSC2=NC(Cc3ccccc3)CN12` (centres unmarked) [Example 93, 6-benzyl-3-(((3-butyl-3,4-dihydroquinazolin-2-yl)thio)methyl)-5,6-dihydroimidazo[2,1-b]thiazole dihydrochloride] was run?
**A.** ≤ 10 µM

**Q.** With `C1=C(CSC2=N[C@@H]3CCCC[C@H]3N2)N2Cc3ccccc3N=C2S1` [Example 32, 3-((((3aR,7aR)-3a,4,5,6,7,7a-hexahydro-1H-benzo[d]imidazol-2-yl)thio)methyl)-5H-thiazolo[2,3-b]quinazoline dihydrochloride] as the compound, how does the IC50 read?
**A.** ≤ 10 µM

**Q.** With `c1ccc2c(c1)CN=C(SC1CCCC[C@H]1N1CCCC1)N2` (stereo partly drawn) [Example 148, 2-(((2R)-2-(pyrrolidin-1-yl)cyclohexyl)thio)-1,4-dihydroquinazoline dihydrochloride] as the compound, how does the IC50 read?
**A.** ≤ 10 µM

**Q.** How did the IC50 turn out when `C1=C(CSC2=NCc3ccccc3N2)N2CC(Cc3cccs3)N=C2S1` (centres unmarked) [Example 63, 3-(((3,4-dihydroquinazolin-2-yl)thio)methyl)-6-(thiophen-2-ylmethyl)-5,6-dihydroimidazo[2,1-b]thiazole dihydrochloride] was run?
**A.** ≤ 10 µM

**Q.** `CC1CCN(CCSC2=NCc3ccccc3N2)C1` (centres unmarked) [Example 138, 2-((2-(3-methylpyrrolidin-1-yl)ethyl)thio)-1,4-dihydroquinazoline dihydrochloride] was tested. Which IC50 did it give?
**A.** ≤ 10 µM

**Q.** Which IC50 does the source give for `Clc1ccc2c(c1)CN1C(CSC3=NCC(Cc4cccs4)N3)=CSC1=N2` (centres unmarked) [Example 64, 7-chloro-3-(((5-(thiophen-2-ylmethyl)-4,5-dihydro-1H-imidazol-2-yl)thio)methyl)-5H-thiazolo[2,3-b]quinazoline dihydrochloride] here?
**A.** ≤ 10 µM

**Q.** `CCCCN1CCN=C1SCC1=CSC2=NCc3ccccc3CN12` [Example 37, 3-(((1-butyl-4,5-dihydro-1H-imidazol-2-yl)thio)methyl)-5,10-dihydrobenzo[e]thiazolo[3,2-a][1,3]diazepine dihydrochloride] was tested. Which IC50 did it give?
**A.** ≤ 10 µM

**Q.** Which IC50 does the source give for `CN1CC[C@H](SC2=NCCc3ccccc3N2)C1` [Example 200, (S)-2-((1-methylpyrrolidin-3-yl)thio)-4,5-dihydro-3H-benzo[d][1,3]diazepine dihydrochloride] here?
**A.** ≤ 10 µM

**Q.** How did the IC50 turn out when `c1ccc(CC2CN=C(SCCN3CCCCCC3)N2)cc1` (centres unmarked) [Example 58, 1-(2-((5-benzyl-4,5-dihydro-1H-imidazol-2-yl)thio)ethyl)azepane dihydrochloride] was run?
**A.** 10 to 32 µM

**Q.** `O=C(O)C1CCN(CCSC2=NCc3ccccc3N2)C1` (centres unmarked) [Example 144, 1-(2-((1,4-dihydroquinazolin-2-yl)thio)ethyl)pyrrolidine-3-carboxylic acid dihydrochloride] was tested. Which IC50 did it give?
**A.** > 32 µM

**Q.** `CN1CCN=C1SCC1=CSC2=Nc3ccccc3CN12` [Example 36, 3-(((1-methyl-4,5-dihydro-1H-imidazol-2-yl)thio)methyl)-5H-thiazolo[2,3-b]quinazoline dihydrochloride] was tested. Which IC50 did it give?
**A.** ≤ 10 µM

**Q.** Which IC50 does the source give for `CC1N=C(SCC2=CSC3=NC(Cc4ccccc4)CN23)Nc2ccccc21` (centres unmarked) [Example 113, 6-benzyl-3-(((4-methyl-1,4-dihydroquinazolin-2-yl)thio)methyl)-5,6-dihydroimidazo[2,1-b]thiazole dihydrochloride] here?
**A.** ≤ 10 µM

**Q.** With `C1=C(CSC2=NCc3ccccc3N2)N2Cc3ccccc3CN=C2S1` [Example 11, 3-(((3,4-dihydroquinazolin-2-yl)thio)methyl)-5,10-dihydrobenzo[e]thiazolo[3,2-a][1,3]diazepine dihydrochloride] as the compound, how does the IC50 read?
**A.** ≤ 10 µM

**Q.** How did the IC50 turn out when `Clc1ccc2c(c1)CN1C(CSC3=NCC4(CC4)N3)=CSC1=N2` [Example 68, 3-(((4,6-diazaspiro[2.4]hept-5-en-5-yl)thio)methyl)-7-chloro-5H-thiazolo[2,3-b]quinazoline dihydrochloride] was run?
**A.** ≤ 10 µM

**Q.** `C1=C(CSC2=NCc3ccccc3N2)N2C[C@H](Cc3c[nH]c4ccccc34)N=C2S1` [Example 109, (S)-6-((1H-indol-3-yl)methyl)-3-(((1,4-dihydroquinazolin-2-yl)thio)methyl)-5,6-dihydroimidazo[2,1-b]thiazole dihydrochloride] was tested. Which IC50 did it give?
**A.** ≤ 10 µM

**Q.** For `C[C@@H](CN1CCCC1)SC1=NCc2cc(Cl)ccc2N1` [Example 168, (S)-6-chloro-2-((1-(pyrrolidin-1-yl)propan-2-yl)thio)-1,4-dihydroquinazoline dihydrochloride], which IC50 is on record?
**A.** 10 to 32 µM

**Q.** For `C(CCN1CCCC1)CSC1=NCCN1` [Example 175, 2-((4-(pyrrolidin-1-yl)butyl)thio)-4,5-dihydro-1H-imidazole dihydrochloride], which IC50 is on record?
**A.** > 32 µM

**Q.** Which IC50 does the source give for `Clc1cccc2c1CN1C(CSC3=NCc4ccccc4N3)=CSC1=N2` [Example 81, 6-chloro-3-(((1,4-dihydroquinazolin-2-yl)thio)methyl)-5H-thiazolo[2,3-b]quinazoline dihydrochloride] here?
**A.** ≤ 10 µM

**Q.** For `Clc1ccc2c(c1)CN=C(SCCCN1CCCC1)N2` [Example 161, 6-chloro-2-((3-(pyrrolidin-1-yl)propyl)thio)-1,4-dihydroquinazoline dihydrochloride], which IC50 is on record?
**A.** ≤ 10 µM

**Q.** For `Clc1ccc2c(c1)CN1C(CSC3=NCC4CCCCN34)=CSC1=N2` (centres unmarked) [Example 49, 7-chloro-3-(((1,5,6,7,8,8a-hexahydroimidazo[1,5-a]pyridin-3-yl)thio)methyl)-5H-thiazolo[2,3-b]quinazoline dihydrochloride], which IC50 is on record?
**A.** ≤ 10 µM

**Q.** `Brc1ccc2c(c1)N=C1SC=C(CSC3=NCc4ccccc4N3)N1C2` [Example 70, 8-bromo-3-(((1,4-dihydroquinazolin-2-yl)thio)methyl)-5H-thiazolo[2,3-b]quinazoline dihydrochloride] was tested. Which IC50 did it give?
**A.** ≤ 10 µM

**Q.** `Clc1ccc2c(c1)CN1C(CSC3=NCCN3)=CSC1=N2` [Example 4, 7-chloro-3-(((4,5-dihydro-1H-imidazol-2-yl)thio)methyl)-5H-thiazolo[2,3-b]quinazoline dihydrochloride] was tested. Which IC50 did it give?
**A.** ≤ 10 µM

— US20240018125A1, “CYCLIC ISOTHIOUREA DERIVATIVES AS CXCR4 MODULATORS” (ERMIUM THERAPEUTICS, priority 2020, published 2024)
